Test results reported in the supplement of paper PMC9663587.

How the values were obtained:
[1] = compound: CC(=O)c1c(C)c2cnc(Nc3ccc(N4CCNCC4)cn3)nc2n(C2CCCC2)c1=O; test: increase in dead-cell fraction, 72 h; higher = more death;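 further: breast cancer cell lines in 384-well plates, stained with Hoechst plus LIVE/DEAD far red dye and imaged, cells above an LDR intensity threshold counted dead, Hoechst-negative corpses included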
[2] = compound: CCN1CCN(Cc2ccc(Nc3ncc(F)c(-c4cc(F)c5nc(C)n(C(C)C)c5c4)n3)nc2)CC1; test: as above
[3] = compound: T1, CN(C)C(=O)c1cc2cnc(Nc3ccc(N4CCNCC4)cn3)nc2n1C1CCCC1 [LEE011/Ribociclib]; test: as above
[4] = compound: T2, CN1CC[C@H](c2c(O)cc(O)c3c(=O)cc(-c4ccccc4Cl)oc23)[C@H](O)C1 [Flavopiridol]; test: as above
[5] = compound: CC(=O)c1c(C)c2cnc(Nc3ccc(N4CCN(CCOCCOCCOCCNC(=O)COc5cccc6c5C(=O)N(C5CCC(=O)NC5=O)C6=O)CC4)cn3)nc2n(C2CCCC2)c1=O [BSJ-03-123]; test: GR value, 72 h; higher = faster growth (1 = untreated, <0 = killing);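 further: breast cancer and non-malignant breast epithelial lines, nine half-log doses, viable cells counted by Hoechst and LIVE/DEAD dye imaging versus time-zero plates and DMSO controls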
[6] = compound: CC(=O)c1c(C)c2cnc(Nc3ccc(N4CCNCC4)cn3)nc2n(C2CCCC2)c1=O; test: as above
[7] = compound: CCN1CCN(Cc2ccc(Nc3ncc(F)c(-c4cc(F)c5nc(C)n(C(C)C)c5c4)n3)nc2)CC1; test: as above
[8] = compound: CCOc1cc2ncc(C#N)c(Nc3ccc(OCc4ccccn4)c(Cl)c3)c2cc1NC(=O)/C=C/CN(C)C [Neratinib/HKI272]; test: as above
[9] = compound: CCc1cnn2c(NCc3ccc[n+]([O-])c3)cc(N3CCCC[C@H]3CCO)nc12; test: as above
[10] = compound: T1, LEE011/Ribociclib; test: as above
[11] = compound: CN(C)C/C=C/C(=O)Nc1ccc(C(=O)Nc2cccc(Nc3ncc(Cl)c(-c4c[nH]c5ccccc45)n3)c2)cc1 [THZ1]; test: as above
[12] = compound: T2, Flavopiridol; test: as above

In the case of SUM190PT, the “increase in dead-cell fraction” value ([1]; 0.0003162 µM) is reported as -0.0078, the “increase in dead-cell fraction” value ([1]; 0.001 µM) is reported as -0.0072 and the “increase in dead-cell fraction” value ([1]; 0.003162 µM) is reported as -0.0095. For the same cell line, the “increase in dead-cell fraction” value ([1]; 0.01 µM) was 0.0012, the “increase in dead-cell fraction” value ([1]; 0.03162 µM) was -0.0013 and the “increase in dead-cell fraction” value ([1]; 0.1 µM) was 0.0119. The “increase in dead-cell fraction” value ([1]; 0.3162 µM) was 0.0131, the “increase in dead-cell fraction” value ([1]; 1 µM) was 0.0095 and the “increase in dead-cell fraction” value ([1]; 3.162 µM) was 0.0058. For the same cell line, the “increase in dead-cell fraction” value ([2]; 0.001 µM) was 0.001, the “increase in dead-cell fraction” value ([2]; 0.003162 µM) was 0.0059 and the “increase in dead-cell fraction” value ([2]; 0.01 µM) was 0.0009. For the same cell line, the “increase in dead-cell fraction” value ([2]; 0.03162 µM) was 0.0041, the “increase in dead-cell fraction” value ([2]; 0.1 µM) was 0.0078 and the “increase in dead-cell fraction” value ([2]; 0.3162 µM) was 0.0015. The “increase in dead-cell fraction” value ([2]; 1 µM) was -0.0004, the “increase in dead-cell fraction” value ([2]; 3.162 µM) was 0.0076 and the “increase in dead-cell fraction” value ([2]; 10 µM) was 0.32. For the same cell line, the “increase in dead-cell fraction” value ([3]; 0.001 µM) was 0.0052, the “increase in dead-cell fraction” value ([3]; 0.003162 µM) was 0.0077 and the “increase in dead-cell fraction” value ([3]; 0.01 µM) was 0.0145. The “increase in dead-cell fraction” value ([3]; 0.03162 µM) was 0.0159, the “increase in dead-cell fraction” value ([3]; 0.1 µM) was 0.0213 and the “increase in dead-cell fraction” value ([3]; 0.3162 µM) was 0.0196. The “increase in dead-cell fraction” value ([3]; 1 µM) was 0.0239, the “increase in dead-cell fraction” value ([3]; 3.162 µM) was 0.0464 and the “increase in dead-cell fraction” value ([3]; 10 µM) was 0.006. For the same cell line, the “increase in dead-cell fraction” value ([4]; 0.0001 µM) was -0.0004, the “increase in dead-cell fraction” value ([4]; 0.0003162 µM) was -0.0016 and the “increase in dead-cell fraction” value ([4]; 0.001 µM) was -0.0005. The “increase in dead-cell fraction” value ([4]; 0.003162 µM) was -0.0011, the “increase in dead-cell fraction” value ([4]; 0.01 µM) was 0.0056 and the “increase in dead-cell fraction” value ([4]; 0.03162 µM) was 0.0019. The “increase in dead-cell fraction” value ([4]; 0.1 µM) was 0.0046, the “increase in dead-cell fraction” value ([4]; 0.3162 µM) was 0.0223 and the “increase in dead-cell fraction” value ([4]; 1 µM) was 0.082. The GR value ([5]; 0.001 µM) was 0.831 GR, the GR value ([5]; 0.003162 µM) was 0.729 GR and the GR value ([5]; 0.01 µM) was 0.533 GR. The GR value ([5]; 0.03162 µM) was 0.491 GR, the GR value ([5]; 0.1 µM) was 0.451 GR and the GR value ([5]; 0.3162 µM) was 0.371 GR. The GR value ([5]; 1 µM) was 0.396 GR, the GR value ([5]; 3.162 µM) was 0.354 GR and the GR value ([5]; 10 µM) was -0.286 GR. The GR value ([6]; 0.0003162 µM) was 0.986 GR, the GR value ([6]; 0.001 µM) was 1.02 GR and the GR value ([6]; 0.003162 µM) was 1.09 GR. It also gave a GR value ([6]; 0.01 µM) of 0.949 GR, a GR value ([6]; 0.03162 µM) of 0.62 GR and a GR value ([6]; 0.1 µM) of 0.316 GR. It also gave a GR value ([6]; 0.3162 µM) of 0.35 GR, a GR value ([6]; 1 µM) of 0.336 GR and a GR value ([6]; 3.162 µM) of 0.378 GR. The GR value ([7]; 0.001 µM) was 0.779 GR, the GR value ([7]; 0.003162 µM) was 0.586 GR and the GR value ([7]; 0.01 µM) was 0.444 GR. For the same cell line, the GR value ([7]; 0.03162 µM) was 0.349 GR, the GR value ([7]; 0.1 µM) was 0.395 GR and the GR value ([7]; 0.3162 µM) was 0.309 GR. It also gave a GR value ([7]; 1 µM) of 0.343 GR, a GR value ([7]; 3.162 µM) of 0.259 GR and a GR value ([7]; 10 µM) of -0.611 GR. For the same cell line, the GR value ([8]; 0.0003162 µM) was 1.06 GR, the GR value ([8]; 0.001 µM) was 1.04 GR and the GR value ([8]; 0.003162 µM) was 1.06 GR. For the same cell line, the GR value ([8]; 0.01 µM) was 0.999 GR, the GR value ([8]; 0.03162 µM) was 1.08 GR and the GR value ([8]; 0.1 µM) was 0.956 GR. The GR value ([8]; 0.3162 µM) was 0.915 GR, the GR value ([8]; 1 µM) was 0.658 GR and the GR value ([8]; 3.162 µM) was 0.429 GR. For the same cell line, the GR value ([9]; 0.0001 µM) was 0.917 GR, the GR value ([9]; 0.0003162 µM) was 0.931 GR and the GR value ([9]; 0.001 µM) was 0.951 GR. For the same cell line, the GR value ([9]; 0.003162 µM) was 1.06 GR, the GR value ([9]; 0.01 µM) was 0.98 GR and the GR value ([9]; 0.03162 µM) was -0.207 GR. It also gave a GR value ([9]; 0.1 µM) of -0.627 GR, a GR value ([9]; 0.3162 µM) of -0.643 GR and a GR value ([9]; 1 µM) of -0.724 GR. For the same cell line, the GR value ([10]; 0.001 µM) was 0.777 GR, the GR value ([10]; 0.003162 µM) was 0.632 GR and the GR value ([10]; 0.01 µM) was 0.576 GR. For the same cell line, the GR value ([10]; 0.03162 µM) was 0.542 GR, the GR value ([10]; 0.1 µM) was 0.453 GR and the GR value ([10]; 0.3162 µM) was 0.46 GR. For the same cell line, the GR value ([10]; 1 µM) was 0.0072 GR, the GR value ([10]; 3.162 µM) was 0.199 GR and the GR value ([10]; 10 µM) was 0.383 GR. It also gave a GR value ([11]; 0.0001 µM) of 1.05 GR, a GR value ([11]; 0.0003162 µM) of 0.839 GR and a GR value ([11]; 0.001 µM) of 0.923 GR. For the same cell line, the GR value ([11]; 0.003162 µM) was 0.842 GR, the GR value ([11]; 0.01 µM) was 0.0733 GR and the GR value ([11]; 0.03162 µM) was -0.46 GR. For the same cell line, the GR value ([11]; 0.1 µM) was -0.462 GR, the GR value ([11]; 0.3162 µM) was -0.331 GR and the GR value ([11]; 1 µM) was -0.467 GR. It also gave a GR value ([12]; 0.0001 µM) of 0.999 GR, a GR value ([12]; 0.0003162 µM) of 1.06 GR and a GR value ([12]; 0.001 µM) of 0.935 GR. It also gave a GR value ([12]; 0.003162 µM) of 0.883 GR, a GR value ([12]; 0.01 µM) of 0.661 GR and a GR value ([12]; 0.03162 µM) of 0.785 GR. For the same cell line, the GR value ([12]; 0.1 µM) was 0.58 GR, the GR value ([12]; 0.3162 µM) was 0.0012 GR and the GR value ([12]; 1 µM) was -0.382 GR.
